Source: patent US20200339691A1, “PROTEINACEOUS MOLECULES AND USES THEREFOR” (priority 2018, published 2020)
“Also recorded” adds a separate entry of the source. Where a SMILES comes first, the peptide text is derived from it. The star is where a group is joined. Myristoyl = CCCCCCCCCCCCCC(=O)*

Assays:
[1] = system: CD44^hiCD24^lo CSCs in MCF7 cells; experiment: FACS analysis of CD44^hiCD24^lo CSCs in MCF7 cells; format: cell-based, human; conditions: 50 μM peptide, 48 hours
Description: (§1) P1 Analogues were synthesized in accordance with the procedure of Example 5. 4×10^4 MDA-MB-231 cells or 1×10^4 induced or non-induced MCF7 cells were seeded in a 12 well plate with 1 mL complete media overnight. Induced MCF7 cells were prepared by stimulating cells with PMA/TGF-β and incubating for 12 hours. Cells were treated with 50 μM test peptide (dissolved in water) for 48 hours. Cells were then washed twice with 1 mL PBS and harvested by trypsinisation. Non-adherent cells were removed during the washing steps. Adherent cells were collected, and were subsequently stained with anti-human CD44, CD24 and Hoechst 33342 antibodies on ice for 30 mins. FACS was performed on BD FACS LSRII to measure the percentage of CD44^hiCD24^lo CSCs by dividing CD44^hiCD24^lo events by total live cell counts (Hoechst negative population) (as described in Fillmore and Kuperwasser (2007) Breast Cancer Res, 9: 303). The percentage of viable cells was calculated by dividing total live cell events by total single cells as described previously (Siemann and Keng (1986), Cancer Res, 46: 3556-3559).

induced MCF7 cells = experiment: FACS CSC inhibition in induced MCF7 cells; format: cell-based, human; conditions: induced MCF7 cells (PMA/TGF-β), 50 μM peptide, 48 hours
Description: as §1

MDA-MB-231 cells [2] = conditions: 72 h
Description: The effect of P1, P2 and P3 (synthesized in accordance with Example 5) on MDA-MB-231 cell proliferation was assessed using a WST-1 proliferation assay.
MCF7 cells were transfected with a plasmid containing the wild-type PD-L1 sequence, a plasmid containing a PD-L1 [K263Q] mutant (Mut1) or vector only (VO) using the NEON electroporation transfection system (Life Technologies). Transfected cells were used for the colorimetric based WTS-1 proliferation assay (Sigma-Aldrich) to examine the effect of transfection on MCF7 cell proliferation. The WTS-1 proliferation assay was also used to determine the effect of treatment with P1, P2 and P3 (synthesized in accordance with Example 5) on MDA-MB-231 cell proliferation. The stable tetrazolium salt WST-1 is cleaved to a soluble formazan by a complex cellular mechanism that occurs primarily at the cell surface. This bioreduction is largely dependent on the glycolytic production of NAD(P)H in viable cells. Therefore, the amount of formazan dye formed directly correlates to the number of metabolically active cells in the culture. Cells grown in a 96-well tissue culture plate were treated with vehicle only or 6.25, 12.5, 25, 50, 100, 200 or 400 μM of P1, P2 or P3 for 72 hours at 37° C. in a humidified CO2 incubator. Cells were then incubated with the WST-1 reagent for 0.5-4 hours. Following incubation, the formazan dye formed is quantitated with a scanning multi-well spectrophotometer (ELISA reader). The measured absorbance directly correlates to the number of viable cells.

MDA-MB-231 cells [3] = experiment: FACS analysis of the cancer stem cell phenotype (CD44^high/CD24^low) in response to P1, P2 and P3; format: cell-based, human; conditions: 6.25-400 μM, 72 hours
Description: 5×10^4 MDA-MB-231 cells were seeded with 1 mL of complete DMEM in 12 well plates overnight. […] Samples were harvested by trypsinization followed by washing with DPBS containing 2% HI-FBS. FACS staining was performed using anti-human CD44-APC, anti-human CD24-PE, Hoechst and anti-human EpCAM antibody cocktails. Data was collected from a BD-FACSLSR-II flow cytometer. Treestar FlowJo was used for data analysis.

PD-L1 [4] = experiment: Immunofluorescence (confocal) of PD-L1 in MDA-MB-231 cells, Example 6; format: cell-based, human; conditions: 50 μM, 72 hours
Description: Confocal laser scanning microscopy was employed to investigate the effect of P1, P2 and P3 (synthesized in accordance with Example 5) on the nuclear expression of PD-L1 and acetylated PD-L1 (PDL1-Ac) (FIG. 9).
1×10^4 MDA-MB-231 cells were seeded onto coverslips in 12 well plates with DMEM media overnight. Cells were treated with 50 μM P1, P2, P3 or P4 or vehicle (water) for 72 hours. Treated cells were fixed with 3.7% formaldehyde, and then permeabilised by incubating with 1% Triton X-100 for 20 min. Cells were then probed with a rabbit anti-PD-L1 antibody (Santa Cruz Biotechnology) or rabbit anti-acetylated PD-L1 (generated as described above) and visualized with a donkey anti-rabbit AF 488. Cover slips were mounted on glass microscope slides with ProLong Diamond Antifade reagent (Life Technologies). Protein targets were localized using confocal laser scanning microscopy. Single 0.5 μm sections were obtained using a Leica DMI8 microscope using 100× oil immersion lens running LAX software. The final image was obtained by averaging four sequential images of the same section. Digital images were analyzed using ImageJ software as described above.

PD-L1 [5] = experiment: Immunofluorescence of PD-L1 in MDA-MB-231 cells, Example 9; format: cell-based, human; conditions: 50 μM, 72 hours
Description: 1×10^4 MDA-MB-231 cells were seeded onto coverslips in 12 well plates with DMEM media. Cells were treated with 50 μM P1, P2, P3 or P4 (synthesized in accordance with Example 5) or vehicle (water) for 72 hours. Cells were fixed with 3.7% formaldehyde and permeabilized with 2% Triton-X-100, then probed with primary mouse antibodies to CSV, DMNT1, H3K9me3 or 5-methylcytosine; primary goat antibodies to SNAI1, SETDB1 or ABCB5; or primary rabbit antibodies to PD-L1, EGFR, EHMT2; followed by the corresponding secondary antibody conjugated to anti-mouse Alexa-Fluor 568, anti-goat Alexa-Fluor 633 or anti-rabbit Alexa-Fluor 488. Confocal laser scanning microscopy was used to measure the TFI, TNFI and TCFI as described above. At least 20 individual cells were analyzed per sample.

p300 = target: T1, p300 (Homo sapiens, UniProt Q09472); experiment: Immunofluorescence of p300 localization in MDA-MB-231 cells; format: cell-based; conditions: 50 μM
T1 construct: endogenous in cells; host or cells: MDA-MB-231
Description: (§2) The effect of P1, P2, P3 and P4 (synthesized in accordance with Example 5) on p300 localization was examined using confocal laser scanning microscopy. […] Cover slips were mounted on glass microscope slides with ProLong Diamond Antifade reagent (Life Technologies). Protein targets were localized by confocal laser scanning microscopy as described above. TNFI and PCC(r) were calculated using ImageJ software as previously described.

[6] = system: acetylated PD-L1 and p300; experiment: Colocalization (PCC(r)) of acetylated PD-L1 and p300 in MDA-MB-231 cells; format: cell-based, human; conditions: 50 μm
Description: as §2

PD-1 = experiment: Immunofluorescence of PD-1 in Jurkat T-cells; format: cell-based; conditions: 50 μM, 72 hours, relative to the control
Description: 1×10^4 Jurkat T-cells were seeded onto coverslips in 12 well plates with DMEM media. Cells were treated with 50 μM P1, P2, P3 (synthesized in accordance with Example 5) or vehicle (water) for 72 hours. Cells were fixed with 3.7% formaldehyde and permeabilized with 2% Triton-X-100, then probed with a primary mouse antibody to PD-1 directly conjugated to Alexa-Fluor 647. Confocal laser scanning microscopy was used to measure the TNFI, TCFI and Fn/c as described above. At least 20 individual cells were analyzed per sample.

T1 sequence (Q09472 whole entry): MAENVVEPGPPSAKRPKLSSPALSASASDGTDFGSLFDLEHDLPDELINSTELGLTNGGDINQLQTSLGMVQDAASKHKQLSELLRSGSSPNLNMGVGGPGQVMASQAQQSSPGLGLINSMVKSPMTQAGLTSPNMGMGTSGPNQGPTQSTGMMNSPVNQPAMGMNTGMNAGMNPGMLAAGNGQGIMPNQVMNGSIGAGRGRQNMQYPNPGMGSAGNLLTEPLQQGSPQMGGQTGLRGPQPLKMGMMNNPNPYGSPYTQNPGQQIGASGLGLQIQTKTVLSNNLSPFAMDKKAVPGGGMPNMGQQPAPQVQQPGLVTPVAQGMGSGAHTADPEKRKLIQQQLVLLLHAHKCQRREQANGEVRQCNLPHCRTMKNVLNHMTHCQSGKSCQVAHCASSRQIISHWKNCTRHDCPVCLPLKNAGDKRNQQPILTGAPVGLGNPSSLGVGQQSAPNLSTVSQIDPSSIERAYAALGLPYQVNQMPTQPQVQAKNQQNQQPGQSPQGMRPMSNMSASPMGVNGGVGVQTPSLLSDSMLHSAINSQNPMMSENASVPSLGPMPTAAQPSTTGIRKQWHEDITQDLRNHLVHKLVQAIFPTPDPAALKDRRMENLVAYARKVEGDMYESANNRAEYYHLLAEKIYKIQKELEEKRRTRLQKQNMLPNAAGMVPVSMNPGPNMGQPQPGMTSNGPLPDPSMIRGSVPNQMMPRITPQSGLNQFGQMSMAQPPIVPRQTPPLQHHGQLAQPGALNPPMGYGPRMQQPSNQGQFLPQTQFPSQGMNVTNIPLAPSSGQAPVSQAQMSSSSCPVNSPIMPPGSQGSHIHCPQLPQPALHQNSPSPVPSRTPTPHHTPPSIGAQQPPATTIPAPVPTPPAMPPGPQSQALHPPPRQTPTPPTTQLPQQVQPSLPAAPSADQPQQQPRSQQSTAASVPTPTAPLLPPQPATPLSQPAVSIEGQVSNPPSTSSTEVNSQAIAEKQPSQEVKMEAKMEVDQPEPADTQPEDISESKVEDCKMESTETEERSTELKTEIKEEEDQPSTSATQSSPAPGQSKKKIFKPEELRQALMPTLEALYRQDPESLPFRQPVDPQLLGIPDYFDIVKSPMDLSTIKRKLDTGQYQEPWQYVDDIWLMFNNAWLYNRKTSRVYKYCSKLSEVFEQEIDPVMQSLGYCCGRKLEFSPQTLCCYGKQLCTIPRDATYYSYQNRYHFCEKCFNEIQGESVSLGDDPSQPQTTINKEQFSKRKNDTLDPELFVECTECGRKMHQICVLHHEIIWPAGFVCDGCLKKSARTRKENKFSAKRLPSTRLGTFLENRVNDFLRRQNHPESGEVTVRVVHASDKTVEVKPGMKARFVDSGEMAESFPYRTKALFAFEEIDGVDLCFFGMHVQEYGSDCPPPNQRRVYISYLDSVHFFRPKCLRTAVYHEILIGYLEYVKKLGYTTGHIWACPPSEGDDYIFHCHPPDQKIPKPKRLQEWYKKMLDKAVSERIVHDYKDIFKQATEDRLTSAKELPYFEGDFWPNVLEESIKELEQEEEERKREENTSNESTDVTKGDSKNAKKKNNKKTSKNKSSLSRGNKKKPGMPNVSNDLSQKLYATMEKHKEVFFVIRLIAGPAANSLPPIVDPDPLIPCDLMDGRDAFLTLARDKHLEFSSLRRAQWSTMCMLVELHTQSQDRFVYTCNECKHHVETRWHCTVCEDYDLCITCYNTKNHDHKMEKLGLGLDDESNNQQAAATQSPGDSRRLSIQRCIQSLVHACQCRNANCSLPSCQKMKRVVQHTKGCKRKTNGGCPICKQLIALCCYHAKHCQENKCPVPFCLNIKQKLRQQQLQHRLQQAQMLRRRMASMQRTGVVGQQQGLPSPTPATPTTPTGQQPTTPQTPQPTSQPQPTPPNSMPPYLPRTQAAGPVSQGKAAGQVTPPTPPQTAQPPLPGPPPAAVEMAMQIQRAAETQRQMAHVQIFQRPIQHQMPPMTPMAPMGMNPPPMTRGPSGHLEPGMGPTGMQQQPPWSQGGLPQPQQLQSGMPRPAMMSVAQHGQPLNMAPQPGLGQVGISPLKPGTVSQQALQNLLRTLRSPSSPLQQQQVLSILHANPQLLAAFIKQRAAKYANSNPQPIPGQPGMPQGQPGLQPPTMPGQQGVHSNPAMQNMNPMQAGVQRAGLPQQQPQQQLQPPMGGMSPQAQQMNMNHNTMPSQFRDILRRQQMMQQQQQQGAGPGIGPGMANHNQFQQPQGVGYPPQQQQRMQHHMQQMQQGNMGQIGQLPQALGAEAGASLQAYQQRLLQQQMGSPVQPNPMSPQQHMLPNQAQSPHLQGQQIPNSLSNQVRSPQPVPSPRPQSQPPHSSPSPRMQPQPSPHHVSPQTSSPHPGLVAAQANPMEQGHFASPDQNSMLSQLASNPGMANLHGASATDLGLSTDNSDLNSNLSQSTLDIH

Row | SMILES | CD44^hiCD24^lo CSC % [1] [%] | COI/Single Cells/Live/CD44^hiCD24^lo CSCs Count [1] | CSC inhibition (%) (induced MCF7 cells) | IC50 (MDA-MB-231 cells [2]) [µM] | cancer stem cell phenotype (CD44^high/CD24^low) (MDA-MB-231 cells [3]) | nuclear expression of PD-L1 (PD-L1 [4]) | PD-L1 nuclear localization (PD-L1 [5]) | p300 nuclear expression (p300) | colocalization of acetylated PD-L1 and p300 [6] | PD-1 nuclear localization (PD-1)
1 | CCCCCCCCCCCCCC(=O)N[C@@H](CC(C)C)C(=O)N[C@H](C(=O)N[C@@H](Cc1ccccc1)C(=O)N[C@H](C(=O)N[C@@H](Cc1ccccc1)C(=O)N[C@@H](CCCNC(=N)N)C(=O)N[C@@H](CC(C)C)C(=O)N[C@@H](CCCNC(=N)N)C(=O)N[C@@H](CCCCN)C(=O)NCC(=O)N[C@@H](CCCNC(=N)N)C(=O)N[C@@H](CCSC)C(=O)N[C@@H](CCSC)C(=O)N[C@@H](CC(=O)O)C(=O)N[C@H](C(=O)N[C@@H](CCCCN)C(=O)N[C@@H](CCCCN)C(N)=O)C(C)C)[C@@H](C)CC)[C@@H](C)O [Peptide P1, Myristoyl-LTFIFRLRKGRMMDVKK-NH2] (Myristoyl-LTFIFRLRKGRMMDVKK-NH2) | 4.36 | 233 | 38.10 | 103 | significantly inhibited | inhibited | significantly inhibited | significantly decreased | significantly decreased | significantly inhibited
2 | CCCCCCCCCCCCCC(=O)N[C@@H](CC(C)C)C(=O)N[C@H](C(=O)N[C@@H](Cc1ccccc1)C(=O)N[C@H](C(=O)N[C@@H](Cc1ccccc1)C(=O)N[C@@H](CCCNC(=N)N)C(=O)N[C@@H](CC(C)C)C(=O)N[C@@H](CCCNC(=N)N)C(=O)N[C@@H](CCCCNC(C)=O)C(=O)NCC(=O)N[C@@H](CCCNC(=N)N)C(=O)N[C@@H](CCSC)C(=O)N[C@@H](CCSC)C(=O)N[C@@H](CC(=O)O)C(=O)N[C@H](C(=O)N[C@@H](CCCCN)C(=O)N[C@@H](CCCCN)C(N)=O)C(C)C)[C@@H](C)CC)[C@@H](C)O [Peptide P3, Myristoyl-LTFIFRLRK(Ac)GRMMDVKK-NH2] (Myristoyl-LTFIFRLRK(Ac)GRMMDVKK-NH2) | 3.26 | 162 | 53.67 | 542 | significantly inhibited; also recorded: greatest inhibition | inhibited | significantly inhibited | significantly decreased; also recorded: greatest effect | significantly decreased | significantly inhibited
3 | CCCCCCCCCCCCCC(=O)N[C@@H](CC(C)C)C(=O)N[C@H](C(=O)N[C@@H](Cc1ccccc1)C(=O)N[C@H](C(=O)N[C@@H](Cc1ccccc1)C(=O)N[C@@H](CCCNC(=N)N)C(=O)N[C@@H](CC(C)C)C(=O)N[C@@H](CCCNC(=N)N)C(=O)N[C@@H](CCC(N)=O)C(=O)NCC(=O)N[C@@H](CCCNC(=N)N)C(=O)N[C@@H](CCSC)C(=O)N[C@@H](CCSC)C(=O)N[C@@H](CC(=O)O)C(=O)N[C@H](C(=O)N[C@@H](CCCCN)C(=O)N[C@@H](CCCCN)C(N)=O)C(C)C)[C@@H](C)CC)[C@@H](C)O [Peptide P2, Myristoyl-LTFIFRLRQGRMMDVKK-NH2] (Myristoyl-LTFIFRLRQGRMMDVKK-NH2) | 2.82 | 123 | 59.93 | 564 | significantly inhibited | inhibited | significantly inhibited | significantly decreased | significantly decreased | significantly inhibited
